Values joined by “and” are separate entries in the source; they are usually repeats but may differ in a detail not shown here. Equal values may be shown once. Toxic doses and inconclusive results are not listed.
Test system: P388 leukemia ip, CD2F1 mice, survival T/C
Test: NCI In Vivo Anticancer Drug Screen. Data for tumor model P388 Leukemia (intraperitoneal) in CD2F1 (CDF1) mice
Conditions: endpoint: median survival time, higher = longer survival
How it was run: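 Mice carrying the transplanted tumor received test compound or vehicle. Survival was recorded in each group, and the value is the treated-group measurement divided by that of the vehicle-treated control group.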

[1] = dose: 50.0 mg/kg/injection, schedule: Q01DX009 (ip), vehicle: Klucel (hydroxypropylcellulose) (HPC)
[2] = dose: 100.0 mg/kg/injection, schedule: Q01DX009 (ip), vehicle: Klucel (hydroxypropylcellulose) (HPC)
[3] = dose: 200.0 mg/kg/injection, schedule: Q01DX009 (ip), vehicle: Klucel (hydroxypropylcellulose) (HPC)
[4] = dose: 50.0 mg/kg/injection, schedule: Q01DX009 (ip), vehicle: saline
[5] = dose: 50.0 mg/kg/injection, schedule: Q01DX005 (ip), vehicle: saline with Tween-80
[6] = dose: 100.0 mg/kg/injection, schedule: Q01DX005 (ip), vehicle: saline with Tween-80
[7] = dose: 200.0 mg/kg/injection, schedule: Q01DX005 (ip), vehicle: saline with Tween-80
[8] = dose: 50.0 mg/kg/injection, schedule: Q01DX009 (ip), vehicle: saline with Tween-80
[9] = dose: 100.0 mg/kg/injection, schedule: Q01DX009 (ip), vehicle: saline with Tween-80
[10] = dose: 50.0 mg/kg/injection, schedule: Q01DX005 (ip), vehicle: saline
[11] = dose: 100.0 mg/kg/injection, schedule: Q01DX005 (ip), vehicle: saline
[12] = dose: 200.0 mg/kg/injection, schedule: Q01DX005 (ip), vehicle: saline
[13] = dose: 60.0 mg/kg/injection, schedule: Q01DX005 (ip), vehicle: saline with Tween-80
[14] = dose: 120.0 mg/kg/injection, schedule: Q01DX005 (ip), vehicle: saline with Tween-80
[15] = dose: 240.0 mg/kg/injection, schedule: Q01DX005 (ip), vehicle: saline with Tween-80
[16] = dose: 25.0 mg/kg/injection, schedule: Q01DX009 (ip), vehicle: Klucel (hydroxypropylcellulose) (HPC)

Cc1c(O)ccc(C(=O)C(=O)C(C)C)c1O
T/C [1]: 115 % of control
T/C [2]: 116 % of control
T/C [3]: 116 % of control

CC(C)N(CCCO)CCCO
T/C [4]: 97 % of control
T/C (dose: 100.0 mg/kg/injection, schedule: Q01DX009 (ip), vehicle: saline): 93 % of control
T/C (dose: 200.0 mg/kg/injection, schedule: Q01DX009 (ip), vehicle: saline): 102 % of control

O=C(O)c1cn(C2CCCCC2)c(=O)[nH]c1=O
T/C [5]: 99 % of control
T/C [6]: 92 % of control
T/C [7]: 92 % of control

O=C1C(c2ccccc2)=C(c2ccccc2)C2(c3ccccc3)Oc3c(Cl)c(Cl)c(Cl)c(Cl)c3OC12c1ccccc1 (stereo unspecified)
T/C [8]: 89 % of control
T/C [9]: 93 % of control

C=C1COC(O)(C(OC)C(O)CC2CC(=O)NC(=O)C2)C1C (stereo unspecified)
T/C (dose: 0.01 mg/kg/injection, schedule: Q01DX009 (ip), vehicle: water): 105 % of control
T/C (dose: 0.03 mg/kg/injection, schedule: Q01DX009 (ip), vehicle: water): 104 % of control
T/C (dose: 0.06 mg/kg/injection, schedule: Q01DX009 (ip), vehicle: water): 111 % of control
T/C (dose: 0.12 mg/kg/injection, schedule: Q01DX009 (ip), vehicle: water): 117 % of control

CC1=CCCC(C)(O)C2CC(CCC3(C)OC3CC1)C(C)C(=O)O2 (stereo unspecified)
T/C (dose: 7.5 mg/kg/injection, schedule: Q01DX009 (ip), vehicle: Klucel (hydroxypropylcellulose) (HPC)): 108 % of control
T/C (dose: 15.0 mg/kg/injection, schedule: Q01DX009 (ip), vehicle: Klucel (hydroxypropylcellulose) (HPC)): 103 % of control
T/C (dose: 30.0 mg/kg/injection, schedule: Q01DX009 (ip), vehicle: Klucel (hydroxypropylcellulose) (HPC)): 89 % of control
T/C (dose: 60.0 mg/kg/injection, schedule: Q01DX009 (ip), vehicle: Klucel (hydroxypropylcellulose) (HPC)): 91 % of control

NCCCCC1(CCCCN)OCCO1
T/C (dose: 12.5 mg/kg/injection, schedule: Q01DX009 (ip), vehicle: saline): 95 % of control
T/C (dose: 25.0 mg/kg/injection, schedule: Q01DX009 (ip), vehicle: saline): 95 % of control
T/C [4]: 100 % of control

C=CC[S+]1CCCCC1C=C (stereo unspecified)
T/C (dose: 100.0 mg/kg/injection, schedule: Q01DX001 (ip), vehicle: saline with Tween-80): 94 % of control
T/C (dose: 200.0 mg/kg/injection, schedule: Q01DX001 (ip), vehicle: saline with Tween-80): 95 % of control
T/C (dose: 400.0 mg/kg/injection, schedule: Q01DX001 (ip), vehicle: saline with Tween-80): 95 % of control

CN(C)C(=O)N1OC2CCC1CC2
T/C (dose: 60.0 mg/kg/injection, schedule: Q01DX005 (ip), vehicle: saline): 100 % of control
T/C (dose: 120.0 mg/kg/injection, schedule: Q01DX005 (ip), vehicle: saline): 100 % of control
T/C (dose: 240.0 mg/kg/injection, schedule: Q01DX005 (ip), vehicle: saline): 100 % of control

CCOC(=S)c1cccc(C(=S)OCC)c1
T/C [8]: 104 % of control
T/C [9]: 100 % of control
T/C (dose: 200.0 mg/kg/injection, schedule: Q01DX009 (ip), vehicle: saline with Tween-80): 103 % of control

CCCNCc1cccc2ccnc(C)c12
T/C [10]: 109 % of control
T/C [11]: 104 % of control
T/C [12]: 101 % of control

COc1ccc(OC)c(C(=O)c2cccc(C(=O)c3cc(OC)ccc3OC)n2)c1
T/C [13]: 99 % of control
T/C [14]: 109 % of control
T/C [15]: 119 % of control

O=C(C#Cc1ccccc1)c1cccnc1
T/C (dose: 12.5 mg/kg/injection, schedule: Q04DX003 (ip), vehicle: Klucel (hydroxypropylcellulose) (HPC)): 107 % of control
T/C (dose: 25.0 mg/kg/injection, schedule: Q04DX003 (ip), vehicle: Klucel (hydroxypropylcellulose) (HPC)): 107 % of control

CC1=C2C3OC(=O)C(C)C3CCC2(C)CCC1=O (stereo unspecified)
T/C (dose: 12.5 mg/kg/injection, schedule: Q04DX002 (ip), vehicle: saline with Tween-80): 107 % of control
T/C (dose: 25.0 mg/kg/injection, schedule: Q04DX002 (ip), vehicle: saline with Tween-80): 91 % of control
T/C (dose: 50.0 mg/kg/injection, schedule: Q04DX002 (ip), vehicle: saline with Tween-80): 91 % of control

Cc1cccc(C(C)C)c1NC(=O)C(=O)C(C#N)c1ccc(CC#N)cc1 (stereo unspecified)
T/C [13]: 99 % of control
T/C [14]: 98 % of control

Cc1cc(C)cc(C(N)=O)c1
T/C (dose: 100.0 mg/kg/injection, schedule: Q04DX003 (ip), vehicle: saline): 96 % of control
T/C (dose: 200.0 mg/kg/injection, schedule: Q04DX003 (ip), vehicle: saline): 99 % of control

N#Cc1cc2cccn2c2c1cnn2-c1ccccc1
T/C [13]: 105 % of control
T/C [14]: 98 % of control
T/C [15]: 89 % of control

NC(=S)NNC(=O)c1ccc([N+](=O)[O-])cc1
T/C [16]: 100 % of control
T/C [1]: 105 % of control
T/C [2]: 99 % of control
T/C [3]: 96 % of control

NC(N)=Nc1c(N)ncnc1N
T/C [13]: 104 % of control and 95 % of control
T/C [14]: 100 % of control
T/C [15]: 96 % of control and 98 % of control

N#Cc1ccc(NC(=O)Nc2ccc(Cc3ccc(NC(=O)Nc4ccc(C#N)cc4)cc3)cc2)cc1
T/C (dose: 15.0 mg/kg/injection, schedule: Q01DX005 (ip), vehicle: Klucel (hydroxypropylcellulose) (HPC)): 97 % of control
T/C (dose: 30.0 mg/kg/injection, schedule: Q01DX005 (ip), vehicle: Klucel (hydroxypropylcellulose) (HPC)): 90 % of control
T/C (dose: 60.0 mg/kg/injection, schedule: Q01DX005 (ip), vehicle: Klucel (hydroxypropylcellulose) (HPC)): 87 % of control
T/C (dose: 120.0 mg/kg/injection, schedule: Q01DX005 (ip), vehicle: Klucel (hydroxypropylcellulose) (HPC)): 94 % of control

COC1C(/C=C/c2cnc(N)s2)OC2OC(C)(C)OC21 (stereo unspecified)
T/C (dose: 100.0 mg/kg/injection, schedule: Q04DX002 (ip), vehicle: saline with Tween-80): 102 % of control
T/C (dose: 200.0 mg/kg/injection, schedule: Q04DX002 (ip), vehicle: saline with Tween-80): 102 % of control
T/C (dose: 400.0 mg/kg/injection, schedule: Q04DX002 (ip), vehicle: saline with Tween-80): 115 % of control

c1ccc2c(c1)CC1OCN3CN(COC4Cc5ccccc5CC43)C1C2 (stereo unspecified)
T/C [10]: 114 % of control
T/C [11]: 111 % of control
T/C [12]: 112 % of control

CS(=O)(=O)NCCSSCCNS(C)(=O)=O
T/C [5]: 106 % of control
T/C [6]: 103 % of control
T/C [7]: 112 % of control

C(=Nc1ccc2c(c1)Cc1ccccc1-2)c1ccc2ccccc2c1
T/C (dose: 400.0 mg/kg/injection, schedule: Q04DX002 (ip), vehicle: saline): 90 % of control

C/C1=C\C(=O)OCC23CCC4(C)OC4C2OC2CC(OC(=O)/C=C/C=C/C(C(C)O)OCC1O)C3(C)C21CO1 (stereo unspecified)
T/C (dose: 1.25 mg/kg/injection, schedule: Q01DX005 (ip), vehicle: saline + alcohol): 121 % of control and 123 % of control
T/C (dose: 5.0 mg/kg/injection, schedule: Q01DX005 (ip), vehicle: saline + alcohol): 124 % of control
T/C (dose: 10.0 mg/kg/injection, schedule: Q01DX005 (ip), vehicle: saline + alcohol): 150 % of control
T/C (dose: 20.0 mg/kg/injection, schedule: Q01DX005 (ip), vehicle: saline + alcohol): 159 % of control

COC(=O)c1nn(C)c(=O)[nH]c1=O
T/C [5]: 103 % of control
T/C [6]: 98 % of control
T/C [7]: 100 % of control

C=CC#CC#Cc1ccc(C#CC)s1
T/C (dose: 12.5 mg/kg/injection, schedule: Q01DX009 (ip), vehicle: Klucel (hydroxypropylcellulose) (HPC)): 96 % of control
T/C [16]: 100 % of control
T/C [1]: 105 % of control
T/C [2]: 104 % of control

Source: PubChem BioAssay AID330 (DTP/NCI, 2004)
